ChEMBL document CHEMBL3228009, “Hypobetalipoproteinemic agents. 2. Compounds related to 4-(1-adamantyloxy)aniline” (J Med Chem, 1979)

What was measured:
Rattus norvegicus [1] = test: Hypobetalipoproteinemic activity in diet-induced hypercholesteremic rat model assessed as decrease in total serum cholesterol at 50 mg/kg, po relative to control; assay type: functional
Rattus norvegicus [2] = test: Hypobetalipoproteinemic activity in diet-induced hypercholesteremic rat model assessed as decrease in heparin precipitating lipoproteins at 50 mg/kg, po relative to control; assay type: functional
Rattus norvegicus [3] = organism: Rattus norvegicus; test: Selectivity ratio of T/C for heparin precipitating lipoproteins to T/C for total serum cholesterol in diet-induced hypercholesteremic rat model; assay type: functional
Rattus norvegicus [4] = test: Toxicity in diet-induced hypercholesteremic rat model assessed as increase in body weight at 50 mg/kg, po relative to control; assay type: organism-based; set-up: dose 50 mg/kg, route oral; conditions: in vivo
Rattus norvegicus [5] = test: Toxicity in diet-induced hypercholesteremic rat model assessed as increase in food intake at 50 mg/kg, po relative to control; assay type: organism-based; set-up: dose 50 mg/kg, route oral; conditions: in vivo

Row | Compound | T/C (Rattus norvegicus [1]) | T/C (Rattus norvegicus [2]) | Selectivity ratio (Rattus norvegicus [3]) | Activity (Rattus norvegicus [4]) [%] | Activity (Rattus norvegicus [5]) [%]
1 | Nc1ccc(S(=O)(=O)C23CC4CC(CC(C4)C2)C3)cc1 | 1.12 | 1.07 | 0.95 | > 63 | > 73
2 | Nc1ccc(SC23CC4CC(CC(C4)C2)C3)cc1 | 0.51 | 0.45 | 0.87 | > 63 | > 73
3 | CN(c1ccc(N2CCCC2)cc1)C12CC3CC(CC(C3)C1)C2 | 0.93 | 1.02 | 1.1 | < 63 | > 73
4 | Nc1ccc(NC23CC4CC(CC(C4)C2)C3)cc1 | 0.94 | 0.85 | 0.9 | < 63 | > 73
5 | CC(=O)Nc1ccc(N(C(C)=O)C23CC4CC(CC(C4)C2)C3)cc1 | 1 | 0.98 | 0.98 | > 63 | > 73
6 | c1cc(N2CCCC2)ccc1SC12CC3CC(CC(C3)C1)C2 | 0.83 | 0.95 | 1.14 | > 63 | > 73
7 | Nc1ccc(OC2C3CC4CC(C3)CC2C4)cc1 (stereo not given) | 0.82 | 0.67 | 0.82 | > 63 | > 73
8 | CC1(Oc2ccc(N)cc2)C2CC3CC(C2)CC1C3 (stereo not given) | 0.58 | 0.45 | 0.77 | < 63 | > 73
9 | c1cc(N2CCCC2)ccc1OC1C2CC3CC(C2)CC1C3 (stereo not given) | 1.07 | 1.07 | 1.01 | > 63 | > 73
10 | CC1(Oc2ccc(N3CCCC3)cc2)C2CC3CC(C2)CC1C3 (stereo not given) | 1.04 | 1.03 | 0.99 | > 63 | > 73
11 | CNc1ccc(OC2C3CC4CC(C3)CC2C4)cc1.Cl (stereo not given) | 0.83 | 0.87 | 1.04 | > 63 | > 73
12 | Nc1ccc(O)cc1 [4-AMINOPHENOL] | 0.94 | 0.98 | 1.04 | > 63 | > 73
